{"source": "patent US20100279930A1", "about": "“HUMAN PANCREATIC POLYPEPTIDE (HPP) ANALOGUES AND THEIR EFFECTS ON FEEDING BEHAVIOUR” (priority 2007, published 2010)", "key": {"human Y4 receptor": {"target": "human Y4 receptor (Homo sapiens, UniProt P50391)", "sequence (P50391 whole entry)": "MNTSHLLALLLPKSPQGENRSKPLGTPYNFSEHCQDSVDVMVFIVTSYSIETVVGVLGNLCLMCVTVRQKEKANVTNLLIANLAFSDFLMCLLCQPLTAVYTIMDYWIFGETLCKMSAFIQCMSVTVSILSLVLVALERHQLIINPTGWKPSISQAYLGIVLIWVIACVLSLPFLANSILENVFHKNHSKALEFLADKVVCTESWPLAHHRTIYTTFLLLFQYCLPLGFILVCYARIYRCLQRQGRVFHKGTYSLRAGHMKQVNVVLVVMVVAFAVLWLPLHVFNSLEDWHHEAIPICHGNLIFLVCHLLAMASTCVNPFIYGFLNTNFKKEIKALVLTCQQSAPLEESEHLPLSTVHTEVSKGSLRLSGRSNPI", "assay": "Human Y Receptor-4 Displacement Assay", "settings": "for binding to the Y4 receptor compared with code 6672: comparator compound of SEQ ID NO:72 (code 6672)", "excerpt": "Human Y Receptor-4 Displacement Assay:\nThe principle of the displacement assay is a fixed quantity of radiolabeled ligand competes with varying doses of a ‘cold’ (non-labelled) ligand for a limited number of receptor binding sites, enabling quantification of the affinity of the cold ligand to the receptor.\nThe cDNA clone was transformed into competent E.coli so a larger preparation of DNA could be produced which was transfected into HEK-293T cells. Using antibiotics, cells expressing the transfected cDNA were selected for, and those cells containing the receptor plasmid were scaled up for a cell membrane preparation. Cells were harvested from culture flasks by scraping, and then homogenized and the membrane separated from other cellular material by differential centrifugation.\nFor the displacement assay all reagents are prepared in displacement assay buffer (25 mM HEPES pH 7.4, 2 mM MgCl2, 4 mM CaCl2 1% BSA, 4 mM) containing protease inhibitors (2 mM phenylmethanesulphonylfluoride, 0.5 mM diprotin A and 0.5 mM phosphoramidon). One thousand counts/sec/tube ^I125PP (iodinated by the direct iodogen method) is used as the radiolabeled peptide, and the competing peptide is tested at varying concentrations between 10 uM and 0.02 pM, with each concentration tested in a minimum of duplicate. To each assay tube a volume of the prepared membrane, enough for total counts (where no competing peptide is present) of 10000-15000 counts/240 second is added. Reagents are added in the following order: buffer, label competing peptide and cell membrane, with a total volume is 500 μl.\nThe assay is incubated at room temperature for 90 minutes before the receptor-^125PP complex is separated from free label by centrifugation at 15600 g for 3 minutes. The supernatant is removed and discarded and the pellet resuspended and washed with 500 μl fresh assay buffer and re-centrifuged. After centrifugation and removal of supernatant the radioactivity of the pellet was measured for 240 seconds using a γ-counter. Specific binding is calculated as the difference between the amount of ^125I-PP bound in the absence (total) and presence (non-specific) of unlabelled peptide. From the binding data, an IC50 for the competing peptide is calculated. Each peptide is tested on a minimum of two separate occasions."}, "Male C57BL/6 mice": {"test_system": "Male C57BL/6 mice", "assay": "In vivo food intake experiments in mice (half-life in the blood judged from appetite suppression)", "parameters": "species or system mouse", "settings": "comparator native human PP; judged from food intake reduction in mice (4-8 h, 0-24 h, 4:1 or 24:1 ratio)", "experimental": "In Vivo Food Intake Experiments\nMale C57BL/6 mice (20-30 g) were used for all mouse experiments. Mice were individually housed in IVC cages. Animals were randomized by weight and fasted overnight for 16 hrs before intraperitoneal injection at 9 am. All peptide solutions were prepared freshly the morning of the study and injected as 100 ul. Food intake was measured at 1, 2, 3, 4, 6, 8 and 24 hours post injection. The peptide was dosed at 30 nmol/kg, 50 nmol/kg, 100 nmol/kg, 120 nmol/kg, 150 nmol/kg, 300 nmol/kg, 600 nmol/kg or 1000 nmol/kg depending on the activity. In each case, a control of saline and a control of unmodified human Pancreatic Polypeptide was carried out. All statistics are calculated using a one-way ANOVA with Dunnett's post-test or one-way ANOVA with Bonferroni post-test.\nA control of saline was used.\nFIG. 2 and in the comparative graph of FIG. 3. […] It is hypothesized that that is as a possible result of stronger activity at the receptor and longer activity.\nThe mouse is a good model for degradation rates in humans, irrespective of the fact that the receptors for PP in mice are different from the human receptor."}, "Y5 receptor": {"target": "T1, Y5 receptor (Homo sapiens, UniProt Q15761)", "T1 sequence (Q15761 1-445)": "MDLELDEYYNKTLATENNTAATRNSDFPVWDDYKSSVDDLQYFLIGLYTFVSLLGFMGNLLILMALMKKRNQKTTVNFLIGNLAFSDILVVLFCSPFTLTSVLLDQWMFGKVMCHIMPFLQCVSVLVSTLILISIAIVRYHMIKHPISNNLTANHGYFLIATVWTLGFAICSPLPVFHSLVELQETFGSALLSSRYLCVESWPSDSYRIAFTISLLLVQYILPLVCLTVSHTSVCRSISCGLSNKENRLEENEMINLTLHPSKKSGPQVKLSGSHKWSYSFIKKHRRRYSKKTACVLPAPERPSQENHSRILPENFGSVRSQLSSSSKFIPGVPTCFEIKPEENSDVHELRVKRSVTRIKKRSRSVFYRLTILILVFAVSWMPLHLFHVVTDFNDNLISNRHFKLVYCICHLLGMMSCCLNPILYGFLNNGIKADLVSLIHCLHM", "settings": "cited from earlier work"}, "[1]": {"settings": "injected intracerebroventricularly; cited from earlier work"}, "healthy volunteers": {"test_system": "healthy volunteers", "settings": "cited from earlier work"}, "[2]": {"test_system": "children with Prader-Willi syndrome", "settings": "100 pmol/kg/h for 90 minutes; cited from earlier work"}, "mice": {"test_system": "mice", "settings": "peripheral administration; cited from earlier work"}}, "note": "No end group written: not given here."}
{"substance": "7218 (AAPLEPVYPGDNATPEQMAQYAADLRRYINKLTRPRY) [compound 7218]", "values": [{"measurement": "binding to the Y4 receptor compared with codes 6433 and 4055855", "setting": "human Y4 receptor; comparators SEQ ID NO:9 (Ala 0, code 6433) and SEQ ID NO:281 (Lys 30, code 4055855)", "value": "binds the Y4 receptor better"}]}
{"substance": "6435 (KPLEPVYPGDNATPEQMAQYAADLRRYINMLTRPRY) [compound 6435]", "values": [{"measurement": "half-life in the blood compared with native human PP", "setting": "Male C57BL/6 mice", "value": "longer half-life"}]}
{"substance": "[K^4]PP", "values": [{"measurement": "affinity to the Y5-receptor", "setting": "Y5 receptor", "value": "strong affinity"}, {"measurement": "effect on food intake", "setting": "[1]", "value": "strong stimulatory effect on food intake"}]}
{"substance": "Ala Pro Leu Glu Pro Val Tyr Pro Gly Asp Asn Ala Thr Pro Glu Gln Met Ala Gln Tyr Ala Ala Asp Leu Arg Arg Tyr Ile Asn Met Leu Thr Arg Pro Arg Tyr NH2 [native human PP]", "values": [{"measurement": "reduction in energy intake", "setting": "healthy volunteers; infusion 5 pmol/kg/min (300 pmol/kg/h) for 90 minutes", "value": 11, "unit": "%"}, {"measurement": "effect on appetite and food intake", "setting": "healthy volunteers; infusion 10 pmol/kg/min (600 pmol/kg/h) for 90 minutes", "value": "reduce appetite and food intake"}, {"measurement": "decrease in 24 hour cumulative energy intake", "setting": "healthy volunteers; infusion 10 pmol/kg/min for 90 minutes", "value": 25, "unit": "%"}, {"measurement": "effect on appetite", "setting": "[2]", "value": "no effect on appetite"}]}
{"substance": "2-36[K^4, RYYSA^19-23]PP", "values": [{"measurement": "affinity to the Y5-receptor", "setting": "Y5 receptor", "value": "strong affinity"}, {"measurement": "effect on food intake", "setting": "[1]", "value": "strong stimulatory effect on food intake"}]}
{"substance": "[RYYSA^19-23]PP", "values": [{"measurement": "affinity to the Y5-receptor", "setting": "Y5 receptor", "value": "strong affinity"}, {"measurement": "effect on food intake", "setting": "[1]", "value": "strong stimulatory effect on food intake"}]}
{"substance": "6674 (KPLEPVYPGDNATPEELNRYYASLRRYINMLTRPRY) [compound 6674]", "values": [{"measurement": "binding to the Y4 receptor compared with code 6672", "setting": "human Y4 receptor", "value": "stronger binders"}]}
{"substance": "6675 (KPLEPVYPGDNATPEELNRYYASLRRYINMLTRPRY) [compound 6675]", "values": [{"measurement": "binding to the Y4 receptor compared with code 6672", "setting": "human Y4 receptor", "value": "stronger binders"}]}
{"substance": "mouse PP: mouse Pancreatic Polypeptide, literature (APLEPMYPGDYATPEQMAQYETQLRRYINTLTRPRY; ends and bridges not checked; UniProt P10601 30-65, looked up)", "values": [{"measurement": "effect on energy balance, food intake and energy expenditure", "setting": "mice", "value": "induce a negative energy balance by decreasing food intake and stimulating energy expenditure"}]}
{"substance": "7215 (AAPLEPVYPGDNATPEQMAQYAAALRRYINKLTRPRY) [compound 7215]", "values": [{"measurement": "binding at the Y4 receptor compared with code 7214", "setting": "human Y4 receptor; comparator SEQ ID NO:167 (code 7214)", "value": "still further better binding at the Y4 receptor"}]}
{"substance": "4059668 (GAPLEPHFPGDNATPEEMAKYAAELRRYINKLTRPRY; synthetic hPP analogue peptide) [compound 4059668]", "values": [{"measurement": "half-life in the blood compared with native human PP", "setting": "Male C57BL/6 mice", "value": "longer half-life"}]}
